Results as given in US20180325914A1, “INCREASING STORAGE OF VITAMIN A, VITAMIN D AND/OR LIPIDS” (Salk Institute for Biological Studies, priority 2014, published 2018).

System: primary HSCs
Conditions: mRNA-Seq expression

Cc1sc2c(c1C)C(c1ccc(Cl)cc1)=N[C@@H](CC(=O)OC(C)(C)C)c1nnc(C)n1-2 [JQ1, (S)-tert-butyl 2-(4-(4-chlorophenyl)-2,3,9-trimethyl-6H-thieno[3,2-f][1,2,4]triazolo[4,3-a][1,4]diazepin-6-yl)acetate]
value_2, gene Kcnab1 (Day_6_JQ1): 5.987
value_2, gene Kctd11 (Day_6_JQ1): 40.3428
value_2, gene Kidins220 (Day_6_JQ1): 34.7188
value_2, gene Lamb1 (Day_6_JQ1): 116.83
value_2, gene Large (Day_6_JQ1): 40.5667
value_2, gene Lass6 (Day_6_JQ1): 16.8557
value_2, gene Lbh (Day_6_JQ1): 311.939
value_2, gene Lrp1 (Day_6_JQ1): 247.494
value_2, gene Lynx1 (Day_6_JQ1): 16.3298
value_2, gene Maged1 (Day_6_JQ1): 209.848
value_2, gene Map1lc3a (Day_6_JQ1): 83.7075
value_2, gene Marveld1 (Day_6_JQ1): 50.0393
value_2, gene Mmab (Day_6_JQ1): 8.1326
value_2, gene Morc4 (Day_6_JQ1): 8.504
value_2, gene Mpp6 (Day_6_JQ1): 75.1224
value_2, gene Mxra8 (Day_6_JQ1): 126.008
value_2, gene Mypop (Day_6_JQ1): 8.4789
value_2, gene Nans (Day_6_JQ1): 59.0594
value_2, gene Ngfrap1 (Day_6_JQ1): 196.152
value_2, gene Nxn (Day_6_JQ1): 73.7521
value_2, gene Ogn (Day_6_JQ1): 68.5101
value_2, gene Olfml3 (Day_6_JQ1): 169.404
value_2, gene Oxct1 (Day_6_JQ1): 46.8229
value_2, gene Palm (Day_6_JQ1): 43.4603
value_2, gene Parva (Day_6_JQ1): 84.643
value_2, gene Pbxip1 (Day_6_JQ1): 66.9739
value_2, gene Pcbp4 (Day_6_JQ1): 31.1679
value_2, gene Pde5a (Day_6_JQ1): 4.315
value_2, gene Pdk3 (Day_6_JQ1): 17.7734
value_2, gene Pdlim5 (Day_6_JQ1): 120.722
value_2, gene Pdrg1 (Day_6_JQ1): 77.2251
value_2, gene Pdzrn3 (Day_6_JQ1): 35.4736
value_2, gene Pgp (Day_6_JQ1): 55.4841
value_2, gene Pgrmc1 (Day_6_JQ1): 110.711
value_2, gene Plcxd2 (Day_6_JQ1): 8.321
value_2, gene Plk4 (Day_6_JQ1): 7.27
value_2, gene Ppic (Day_6_JQ1): 178.683
value_2, gene Pqlc3 (Day_6_JQ1): 21.232
value_2, gene Prdx4 (Day_6_JQ1): 90.3086
value_2, gene Prkab2 (Day_6_JQ1): 26.0507
value_2, gene Prr11 (Day_6_JQ1): 6.831
value_2, gene Prrx1 (Day_6_JQ1): 33.6888
value_2, gene Ptk7 (Day_6_JQ1): 33.1681
value_2, gene Ptprs (Day_6_JQ1): 25.6268
value_2, gene Rab11fip5 (Day_6_JQ1): 18.6008
value_2, gene Rbfox2 (Day_6_JQ1): 31.4181
value_2, gene Rbms3 (Day_6_JQ1): 14.5408
value_2, gene Rhou (Day_6_JQ1): 27.2789
value_2, gene Rrm1 (Day_6_JQ1): 37.9825
value_2, gene Rsu1 (Day_6_JQ1): 115.627
value_2, gene Sepn1 (Day_6_JQ1): 53.0761
value_2, gene Shisa4 (Day_6_JQ1): 29.5421
value_2, gene Sidt2 (Day_6_JQ1): 85.8124
value_2, gene Sil1 (Day_6_JQ1): 25.0211
value_2, gene Smpd1 (Day_6_JQ1): 40.8765
value_2, gene Snx7 (Day_6_JQ1): 31.6545
value_2, gene Sparc (Day_6_JQ1): 3945.98
value_2, gene St3gal2 (Day_6_JQ1): 27.017
value_2, gene St6galnac6 (Day_6_JQ1): 21.1878
value_2, gene Ston1 (Day_6_JQ1): 80.759
value_2, gene Suox (Day_6_JQ1): 13.7986
value_2, gene Synpo (Day_6_JQ1): 128.3
value_2, gene Tln2 (Day_6_JQ1): 10.7793
value_2, gene Tmem176b (Day_6_JQ1): 232.156
value_2, gene Tubb2a (Day_6_JQ1): 56.747
value_2, gene Tulp4 (Day_6_JQ1): 15.6577
value_2, gene Tyms (Day_6_JQ1): 9.8
value_2, gene Unc5b (Day_6_JQ1): 142.372
value_2, gene Vcl (Day_6_JQ1): 188.104
value_2, gene Wbp5 (Day_6_JQ1): 336.924
value_2, gene Zfp449 (Day_6_JQ1): 5.689
4833442J19Rik value_2 (Day_6_JQ1) (primary HSCs, day 6 with JQ1): 5.928
4930583H14Rik value_2 (Day_6_JQ1) (primary HSCs, day 6 with JQ1): 0.6572
AA467197 value_2 (Day_6_JQ1) (primary HSCs, day 6 with JQ1): 1.792
AI427809 value_2 (Day_6_JQ1) (primary HSCs, day 6 with JQ1): 0.3782
Acta1 value_2 (Day_6_JQ1) (primary HSCs, day 6 with JQ1): 5.299
Actg2 value_2 (Day_6_JQ1) (primary HSCs, day 6 with JQ1): 9.747
Adamtsl2 value_2 (Day_6_JQ1) (primary HSCs, day 6 with JQ1): 0.6746
Ak4 value_2 (Day_6_JQ1) (primary HSCs, day 6 with JQ1): 2.207
Alox5ap value_2 (Day_6_JQ1) (primary HSCs, day 6 with JQ1): 1.8396
Angpt4 value_2 (Day_6_JQ1) (primary HSCs, day 6 with JQ1): 2.216
Aoc3 value_2 (Day_6_JQ1) (primary HSCs, day 6 with JQ1): 0.7708
Atp1a3 value_2 (Day_6_JQ1) (primary HSCs, day 6 with JQ1): 1.07
Bcat1 value_2 (Day_6_JQ1) (primary HSCs, day 6 with JQ1): 1.171
C1qtnf2 value_2 (Day_6_JQ1) (primary HSCs, day 6 with JQ1): 1.262
C1qtnf5 value_2 (Day_6_JQ1) (primary HSCs, day 6 with JQ1): 5.303
Cck value_2 (Day_6_JQ1) (primary HSCs, day 6 with JQ1): 0.3139
Ccl12 value_2 (Day_6_JQ1) (primary HSCs, day 6 with JQ1): 0.2748
Cdh3 value_2 (Day_6_JQ1) (primary HSCs, day 6 with JQ1): 1.477
Cdh6 value_2 (Day_6_JQ1) (primary HSCs, day 6 with JQ1): 0.764
Chd3 value_2 (Day_6_JQ1) (primary HSCs, day 6 with JQ1): 4.386
Chst11 value_2 (Day_6_JQ1) (primary HSCs, day 6 with JQ1): 22.6881
Cnn1 value_2 (Day_6_JQ1) (primary HSCs, day 6 with JQ1): 5.628
Col6a2 value_2 (Day_6_JQ1) (primary HSCs, day 6 with JQ1): 6.3149
Col6a3 value_2 (Day_6_JQ1) (primary HSCs, day 6 with JQ1): 7.234
Col7a1 value_2 (Day_6_JQ1) (primary HSCs, day 6 with JQ1): 0.5444
Col11a1 value_2 (Day_6_JQ1) (primary HSCs, day 6 with JQ1): 4.303
Col15a1 value_2 (Day_6_JQ1) (primary HSCs, day 6 with JQ1): 0.2832
Csdc2 value_2 (Day_6_JQ1) (primary HSCs, day 6 with JQ1): 0.913
Cthrc1 value_2 (Day_6_JQ1) (primary HSCs, day 6 with JQ1): 4.104
D430019H16Rik value_2 (Day_6_JQ1) (primary HSCs, day 6 with JQ1): 1.971
Def6 value_2 (Day_6_JQ1) (primary HSCs, day 6 with JQ1): 0.8624
Des value_2 (Day_6_JQ1) (primary HSCs, day 6 with JQ1): 14.4745
Dkk2 value_2 (Day_6_JQ1) (primary HSCs, day 6 with JQ1): 0.918
Dok5 value_2 (Day_6_JQ1) (primary HSCs, day 6 with JQ1): 1.203
Dpep1 value_2 (Day_6_JQ1) (primary HSCs, day 6 with JQ1): 0.6357
